ChEMBL document CHEMBL1132225, “Novel antidiabetic and hypolipidemic agents. 3. Benzofuran-containing thiazolidinediones” (J Med Chem, 1999)
“And” between values parts separate entries of the source, which are not always exact repeats. Equal values may be shown once. The source made the active and inactive calls. The calls are words filed in the database; no cut-off is given here.

Columns and labels:
[1] = organism: Mus musculus; experiment: The compound was tested for percent reduction of plasma triglyceride after 6 days of treatment.; type: functional; parameters: concentration or dose not given beside the values
[2] = system: Mus musculus; experiment: Percent reduction of plasma glucose (PG) after 6 days of treatment. It is the mean of standard deviation observed in plasma glucose (PG) in db/db mice at dose of 100 mg/kg/day; type: functional; settings: route oral
[3] = system: Mus musculus; experiment: Percent reduction of plasma glucose (PG) after 6 days of treatment. It is the mean of standard deviation observed in plasma glucose (PG) in db/db mice at dose of 30 mg/kg/day; type: functional; settings: route oral
[4] = organism: Mus musculus; experiment: Percent reduction of plasma glucose after 6 days of treatment (various doses).; type: functional
[5] = system: Mus musculus; experiment: Percent reduction in plasma triglyceride (TG) after 6 days of treatment. It is the mean of standard deviation observed in plasma triglyceride (TG) in db/db mice at dose of 100 mg/kg/day; type: functional; settings: route oral
[6] = system: Mus musculus; experiment: Percent reduction in plasma triglyceride (TG) after 6 days of treatment. It is the mean of standard deviation observed in plasma triglyceride (TG) in db/db mice at dose of 30 mg/kg/day; type: functional; settings: route oral
[7] = organism: Mus musculus; experiment: The compound was tested for percent reduction of plasma triglyceride after 6 days of treatment; Not Active; type: functional, organism-based
[8] = system: Mus musculus; experiment: Percent reduction in plasma triglyceride (TG) after 6 days of treatment. It is the mean of standard deviation observed in plasma triglyceride (TG) in db/db mice at dose of 200 mg/kg/day; NA = Not Active; type: functional, organism-based
[9] = system: Mus musculus; experiment: Percent reduction of plasma glucose (PG) after 6 days of treatment. It is the mean of standard deviation observed in plasma glucose (PG) in db/db mice at dose of 200 mg/kg/day; type: functional; settings: route oral
[10] = biological target: T1, Peroxisome proliferator-activated receptor alpha (Homo sapiens) (UniProt Q07869); experiment: Compound was tested for fold transactivation of human Peroxisome proliferator activated receptor alpha at 50 uM
T1 sequence (whole entry): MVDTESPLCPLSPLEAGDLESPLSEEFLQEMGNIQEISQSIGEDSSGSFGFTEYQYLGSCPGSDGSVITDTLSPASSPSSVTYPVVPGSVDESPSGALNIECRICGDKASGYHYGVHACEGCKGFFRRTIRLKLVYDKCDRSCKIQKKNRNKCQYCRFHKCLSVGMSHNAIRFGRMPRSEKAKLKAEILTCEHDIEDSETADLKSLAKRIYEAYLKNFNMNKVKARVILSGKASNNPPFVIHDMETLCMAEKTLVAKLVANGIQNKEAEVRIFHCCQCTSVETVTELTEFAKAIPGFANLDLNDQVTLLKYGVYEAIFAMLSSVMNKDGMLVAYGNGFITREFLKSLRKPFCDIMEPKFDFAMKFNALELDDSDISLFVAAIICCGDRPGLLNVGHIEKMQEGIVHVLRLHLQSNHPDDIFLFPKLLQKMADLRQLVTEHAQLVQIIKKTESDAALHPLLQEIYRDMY

[11] = biological target: T2, Peroxisome proliferator-activated receptor gamma (Homo sapiens) (UniProt P37231); experiment: The fold activation against 1 amino acids 174-475)
T2 sequence (whole entry): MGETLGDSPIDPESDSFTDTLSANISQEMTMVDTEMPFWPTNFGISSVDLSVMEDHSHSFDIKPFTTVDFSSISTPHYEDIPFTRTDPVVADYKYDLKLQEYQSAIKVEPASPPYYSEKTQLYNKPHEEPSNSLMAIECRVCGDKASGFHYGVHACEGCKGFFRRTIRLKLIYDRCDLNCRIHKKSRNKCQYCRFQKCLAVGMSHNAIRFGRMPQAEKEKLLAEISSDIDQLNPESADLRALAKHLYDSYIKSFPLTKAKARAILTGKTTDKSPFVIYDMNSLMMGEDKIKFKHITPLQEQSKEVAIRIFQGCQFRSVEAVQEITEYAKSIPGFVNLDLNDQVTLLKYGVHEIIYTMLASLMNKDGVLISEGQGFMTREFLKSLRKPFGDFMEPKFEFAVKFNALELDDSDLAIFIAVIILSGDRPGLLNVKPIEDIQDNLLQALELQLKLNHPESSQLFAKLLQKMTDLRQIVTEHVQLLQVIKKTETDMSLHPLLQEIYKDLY

[12] = biological target: T1, Peroxisome proliferator-activated receptor alpha (Homo sapiens); experiment: The fold activation against 50 u M Peroxisome proliferator activated receptor alpha(amino acids 167-468)
[13] = system: Mus musculus; experiment: Percent reduction in plasma triglyceride (TG) after 6 days of treatment. It is the mean of standard deviation observed in plasma triglyceride (TG) in db/db mice at dose of 100 mg/kg/day; NA = Not Active; type: functional
[14] = organism: Mus musculus; experiment: The compound was tested for percent reduction of plasma triglyceride after 6 days of treatment; not active; type: functional, organism-based
[15] = system: Mus musculus; experiment: Percent reduction of plasma glucose (PG) after 6 days of treatment. It is the mean of standard deviation observed in plasma glucose (PG) in db/db mice at dose of 100 mg/kg/day; NA = Not Active; type: functional, organism-based

Transactivation [10] [fold]	Fold activation [11]	Fold activation [12]	Structure (SMILES)	PG [2] [%]	Reduction [4]	also measured
–	–	–	Cc1c(C)c2c(c(C)c1OCc1ccccc1)C(CN1CCC[C@H]1COc1ccc(CC3SC(=O)NC3=O)cc1)C(C)(C)O2 (stereo not given in full) [listing 1 of 2 here]	48	48% and 37%	Reduction [1]: 31% and 22%; PG [3]: 37%; TG [5]: 31%; TG [6]: 22%
–	–	–	Cc1c(C)c2c(c(C)c1OCc1ccccc1)C(CN(C)CCOc1ccc(/C=C3\SC(=O)NC3=O)cc1)C(C)(C)O2 (stereo not given)	–	23%	Reduction [7]: inactive; TG [8]: inactive; PG [9]: 23%
0.43	1.03	0.43	Cc1c(C)c2c(c(C)c1OCc1ccccc1)C(CN1CCC[C@H]1COc1ccc(/C=C3\SC(=O)NC3=O)cc1)C(C)(C)O2 (stereo not given in full)	–	–	–
0.28	0.84	0.28	Cc1c(C)c2c(c(C)c1O)C(CN1CCC[C@H]1COc1ccc(/C=C3\SC(=O)NC3=O)cc1)C(C)(C)O2 (stereo not given in full)	19	19%	Reduction [7]: inactive; TG [13]: inactive
–	–	–	Cc1c(C)c2c(c(C)c1O)C(COc1ccc(/C=C3\SC(=O)NC3=O)cc1)C(C)(C)O2 (stereo not given)	–	11%	TG [8]: inactive; PG [9]: 11%; Reduction [14]: inactive
0.33	0.17	0.33	Cc1c(C)c2c(c(C)c1OCc1ccccc1)C(CN1CCC[C@H]1COc1ccc(CC3SC(=O)NC3=O)cc1)C(C)(C)O2 (stereo not given in full) [listing 2 of 2 here]	–	–	–
0.46	1.21	0.46	Cc1c(C)c2c(c(C)c1O)C(CN1CCC[C@H]1COc1ccc(CC3SC(=O)NC3=O)cc1)C(C)(C)O2 (stereo not given in full)	37	37% and 28%	Reduction [1]: 33% and 29%; PG [3]: 28%; TG [5]: 33%; TG [6]: 29%
–	–	–	Cc1oc2c(C)c(C)c(OCc3ccccc3)c(C)c2c1CN1CCC[C@H]1COc1ccc(/C=C2\SC(=O)NC2=O)cc1	50	50%	Reduction [7]: inactive; TG [13]: inactive
–	–	–	Cc1oc2c(C)c(C)c(OCc3ccccc3)c(C)c2c1CN1CCC[C@H]1COc1ccc(CC2SC(=O)NC2=O)cc1 (stereo not given in full)	–	–	TG [13]: inactive; PG [15]: inactive
–	–	–	Cc1c(C)c2c(c(C)c1OCc1ccccc1)C(COc1ccc(/C=C3\SC(=O)NC3=O)cc1)C(C)(C)O2 (stereo not given)	–	10%	TG [8]: inactive; PG [9]: 10%; Reduction [14]: inactive
–	–	–	Cc1c(C)c2c(c(C)c1O)C(CN(C)CCOc1ccc(/C=C3\SC(=O)NC3=O)cc1)C(C)(C)O2 (stereo not given)	28	28%	Reduction [1]: 76%; TG ([13]; route oral): 76%
